Data published in patent publication US20250263650A1, “FUNGUS AND MICROBIAL AGENT FOR TREATING MERCURY CONTAMINATION, USE THEREOF, MERCURY REMOVAL METHOD, AND METHOD FOR I[…] CAPABLE OF TREATING MERCURY CONTAMINATION” (ZHEJIANG UNIVERSITY, priority 2021, published 2025).

Tested on: Zea mays L. seeds
Experiment: Tolerance of Zea mays L. to methylmercury and divalent mercury (seed germination in soil)
Type: in vivo
Procedure: Methylmercury was added to the soil, where five concentrations of 0 μg/kg, 2.5 μg/kg, 5 μg/kg, 7.5 μg/kg, and 10 μg/kg were set. Divalent mercury was added to the soil, where five concentrations of 0 mg/kg, 20 mg/kg, 30 mg/kg, 40 mg/kg, and 50 mg/kg were set. The soil was placed in a cultivation vessel (with a height of 14 cm and a diameter of 7 cm).
Seed disinfection and cultivation: Zea mays L. seeds were disinfected for 5 min in 1% sodium hypochlorite and then washed three times with sterile water (1 min each time), disinfected for 10 min with 15% H2O2 and then washed three times with sterile water (1 min each time), and then placed in a 2% water agar medium and vernalized overnight at 4° C. Then, the pretreated seeds were sown into the soil, and 10 P. purpureum seeds or 5 Zea mays L. seeds were sown in each vessel.

Row | Compound | germination rate of the Zea mays L. seeds (soil with 2.5 μg/kg methylmercury) [%] | germination rate of the Zea mays L. seeds (soil with 10 μg/kg methylmercury) [%] | germination rate of the Zea mays L. seeds (soil with 20 mg/kg divalent mercury) [%] | germination rate of the Zea mays L. seeds (soil with 30 mg/kg divalent mercury) [%] | germination rate of the Zea mays L. seeds (soil with 40 mg/kg divalent mercury) [%]
1 | [CH3][Hg][Cl] [methylmercury] | 100 | 80 |  |  | 
2 | [Hg+2] [divalent mercury] |  |  | 100 | 80 | 60
